Laboratory results published in article PMC12257397, “Scaffold Hopping Strategy toward New 4‑Aminoquinazolines Active Against Extracellular and Intracellular Mycobacterium tuberculosis” (ACS Medicinal Chemistry Letters, 2025).
In brackets after ≈: the same amount, converted by molar mass.

Experiments:
[1] = tested on: M. tuberculosis LP-0106898-RM1 (QcrB T313I); type: cell-based, Mycobacterium tuberculosis
[2] = tested on: M. tuberculosis LP-0497754-RM301, MmpL3 triple mutant (F255L, V646M, F644I); type: cell-based, Mycobacterium tuberculosis
[3] = tested on: M. tuberculosis QcrB M342T; details: given in Figure 1A; cited from earlier work
[4] = tested on: M. tuberculosis QcrB T313I; details: given in Figure 1A; cited from earlier work
[5] = tested on: M. tuberculosis qcrCAB (A178T); details: given in Figure 1A; cited from earlier work

Compound | MIC QcrBT313I [1] [µM] | MIC MmpL3 (F255L, V646M, F644I) [2] [µM] | MIC QcrB M342T [3] [µM] | MIC QcrB T313I [4] [µM] | IC50 [5] [nM]
Cc1ccc(CCNc2nc(C)nc3ccc(I)cc23)cc1 [15d] | 0.70 (≈ 0.282 µg/mL) | 0.89 (≈ 0.359 µg/mL) | – | – | –
CO[C@H]1/C=C/O[C@@]2(C)Oc3c(C)c(O)c4c(O)c(c(/C=N/N5CCN(C)CC5)c(O)c4c3C2=O)NC(=O)/C(C)=C\C=C\[C@H](C)[C@H](O)[C@@H](C)[C@@H](O)[C@@H](C)[C@H](OC(C)=O)[C@@H]1C [20 (RIF), rifampicin, reference compound] | 0.010 (≈ 0.00823 µg/mL) | 0.030 (≈ 0.0247 µg/mL) | – | – | –
CCc1nc2ccc(C)cc2n1CCCNc1ccccc1 [2 (FABA)] | – | – | 4.1 (≈ 1.2 µg/mL) | 8.7 (≈ 2.55 µg/mL) | –
c1ccc(CCCNc2ncnc3ccccc23)cc1 [18e] | 29.0 (≈ 7.64 µg/mL) | 39.0 (≈ 10.3 µg/mL) | – | – | –
CCc1nc(NCCCc2ccccc2)c2cc(C)sc2n1 [3 (CWHM-1023)] | – | – | – | – | > 500
CCc1ccc(CCNc2nc(C)nc3ccc(Br)cc23)cc1 [16c] | 2.4 (≈ 0.889 µg/mL) | 3.4 (≈ 1.26 µg/mL) | – | – | –
FC(F)(F)c1ccc(CCNc2cc(-c3ccccn3)nc3ncnn23)cc1 [1 (TAP)] | – | – | 10 (≈ 3.84 µg/mL) | > 20 | –
Cc1nc(NCCc2ccc(OC(F)(F)F)cc2)c2cc(I)ccc2n1 [13d] | 5.2 (≈ 2.46 µg/mL) | 8.3 (≈ 3.93 µg/mL) | – | – | –
COc1ccc(CCNc2nc(C)nc3ccc(I)cc23)cc1 [10d] | 1.2 (≈ 0.503 µg/mL) | 1.5 (≈ 0.629 µg/mL) | – | – | –
Cc1nc(NCCCc2ccccc2)c2cc(I)ccc2n1 [18d] | 0.48 (≈ 0.194 µg/mL) | 0.64 (≈ 0.258 µg/mL) | – | – | –
CCc1ccc(CCNc2nc(C)nc3ccc(I)cc23)cc1 [16d] | 1.8 (≈ 0.751 µg/mL) | 2.3 (≈ 0.96 µg/mL) | – | – | –
Cc1nc(NCCc2ccc3ccccc3c2)c2cc(Br)ccc2n1 [17c] | 2.2 (≈ 0.863 µg/mL) | 2.6 (≈ 1.02 µg/mL) | – | – | –
Cc1nc(NCCc2ccccc2)c2cc(I)ccc2n1 [9d] | 0.67 (≈ 0.261 µg/mL) | 0.89 (≈ 0.346 µg/mL) | – | – | –
Cc1nc(NCCc2ccc(OC(F)(F)F)cc2)c2cc(Br)ccc2n1 [13c] | 4.0 (≈ 1.7 µg/mL) | 5.4 (≈ 2.3 µg/mL) | – | – | –
COc1ccc2nc(C)nc(NCCCc3ccccc3)c2c1 [18b] | 1.3 (≈ 0.4 µg/mL) | 1.5 (≈ 0.461 µg/mL) | – | – | –
Cc1nc(NCCc2ccc(Cl)cc2)c2cc(I)ccc2n1 [11d] | 0.80 (≈ 0.339 µg/mL) | 1.0 (≈ 0.424 µg/mL) | – | – | –
Cc1nc(NCCCc2ccccc2)c2cc(Br)ccc2n1 [18c] | <0.19 | < 0.19 | – | – | –
Cc1nc(NCCc2ccc3ccccc3c2)c2cc(I)ccc2n1 [17d] | 1.2 (≈ 0.527 µg/mL) | 1.4 (≈ 0.615 µg/mL) | – | – | –
Cc1nc(NCCCc2ccccc2)c2ccccc2n1 [18a] | 1.0 (≈ 0.277 µg/mL) | 1.2 (≈ 0.333 µg/mL) | – | – | –
